The nature of assay [1]: Growth inhibition of human RCC4 cells after 4 days by XTT assay. It counts as functional, cell-based. The following applies: RCC4, 96 h. A general note: Formazan colour is commonly taken as a measure of viable cells.
The nature of assay [2]: Growth inhibition of human RCC4/VHL cells after 4 days by XTT assay. It counts as functional, cell-based. As to conditions: 96 h.
A short description of assay [3]: Selectivity ratio IC50 for human RCC4/VHL cells to IC50 for human RCC4 cells. The class given is functional.

The structures appear in SMILES notation. Where only a bound is given, the exact number is not on record here.

Regarding `Cc1cccc(Nc2nc(-c3ccncc3-c3ccc(C(=O)N4CCN(C)CC4)cc3)cs2)c1`, the IC50 in assay [1] (read-out: IC50) was 12.8 µM; in assay [1] (read-out: pIC50 (converted)) it was 12.9 µM; in assay [2] it was > 40 µM. For the same molecule, in assay [3], the “Ratio IC50” value was >3.1.

Consider `Cc1cccc(Nc2nc(-c3cnn4ccccc34)cs2)c1`, for which the IC50 in assay [1] (read-out: IC50) was > 40 µM; in assay [1] (read-out: pIC50 (converted)) it was 40.7 µM; in assay [2], 15.3 µM. The “Ratio IC50” value in assay [3] was <0.4.

Consider `Cc1cccc(Nc2nc(-c3ccncc3-c3ccc(S(C)(=O)=O)cc3)cs2)c1`, for which the IC50 in assay [1] (read-out: IC50) is 1.6 µM; in assay [1] (read-out: pIC50 (converted)), 1.62 µM; in assay [2], 13.4 µM. In addition, in assay [3], the “Ratio IC50” value is 8.4.

For the molecule `Cc1cccc(Nc2cccc(-c3ccncc3)n2)c1`, the IC50 is 7.4 µM in assay [1] (read-out: IC50), 7.41 µM in assay [1] (read-out: pIC50 (converted)) and > 40 µM in assay [2]. The “Ratio IC50” value in assay [3] is >5.4.

Consider `Cc1cccc(Nc2nc(-c3ccncc3C#CCCO)cs2)c1`, for which the IC50 is 1.1 µM in assay [1] (read-out: IC50), 1.1 µM in assay [1] (read-out: pIC50 (converted)) and 2.8 µM in assay [2]. The “Ratio IC50” value in assay [3] worked out at 2.5.

For the molecule `Cc1cccc(Nc2nc(-c3ccncc3-c3ccc(C(F)(F)F)cc3)cs2)c1`, the IC50 in assay [1] (read-out: IC50) is 12.8 µM; in assay [1] (read-out: pIC50 (converted)), 12.9 µM; in assay [2], 22.6 µM. Moreover, the “Ratio IC50” value in assay [3] is recorded as 1.8.

Turning to `Cc1cccc(Nc2nc(-c3cc(-c4ccccc4)nc4ccccc34)cs2)c1`, the IC50 in assay [1] (read-out: IC50) is 25.4 µM; in assay [1] (read-out: pIC50 (converted)), 25.7 µM; in assay [2] it was > 40 µM. Further, the “Ratio IC50” value in assay [3] is >1.6.

For `Cc1cccc(Nc2nc(-c3ccnc(-c4ccccc4)c3)cs2)c1`, the figures for the IC50 in assay [1] (read-out: IC50), in assay [1] (read-out: pIC50 (converted)) and in assay [2] were 19.1 µM, 19.5 µM and 40 µM, respectively. The “Ratio IC50” value in assay [3] was determined as 2.1.

For the molecule `Cc1cccc(Nc2cc(-c3ccncc3)ncn2)c1`, the IC50 in assay [1] (read-out: IC50) is 23.1 µM; in assay [1] (read-out: pIC50 (converted)), 23.4 µM; in assay [2], 28.1 µM. Besides, the “Ratio IC50” value in assay [3] came to 1.2.

Consider `Cc1cccc(Nc2nccc(-c3ccncc3)n2)c1`, for which the IC50 was 6.5 µM in assay [1] (read-out: IC50), 6.61 µM in assay [1] (read-out: pIC50 (converted)) and 8.6 µM in assay [2]. Also, in assay [3], the “Ratio IC50” value is recorded as 1.3.

`Cc1cccc(Nc2nc(-c3ccnc(-c4cnn(C)c4)c3)cs2)c1`: the IC50 is 5.2 µM in assay [1] (read-out: IC50), 5.25 µM in assay [1] (read-out: pIC50 (converted)) and 8.1 µM in assay [2]. Besides, in assay [3], the “Ratio IC50” value came to 1.6.

In the case of `CC(=O)c1ccc(-c2cc(-c3csc(Nc4cccc(C)c4)n3)ccn2)cc1`, the IC50 in assay [1] (read-out: IC50) is 38.8 µM; in assay [1] (read-out: pIC50 (converted)), 38.9 µM; in assay [2], 33.4 µM. Besides, in assay [3], the “Ratio IC50” value is recorded as 0.9.

In the case of `Cc1cccc(Nc2nc(-c3ccnc(-c4cn(Cc5ccccc5)nn4)c3)cs2)c1`, the IC50 in assay [1] (read-out: IC50) was 2.1 µM; in assay [1] (read-out: pIC50 (converted)) it was 2.14 µM; in assay [2], 14 µM. The “Ratio IC50” value in assay [3] is 6.7.

`Cc1cccc(Nc2nc(-c3ccncc3-c3ccc(S(=O)(=O)NC(C)(C)C)cc3)cs2)c1`: the values for the IC50 in assay [1] (read-out: IC50), in assay [1] (read-out: pIC50 (converted)) and in assay [2] were 4.5 µM, 4.57 µM and 22.5 µM, respectively. In assay [3], the “Ratio IC50” value came out at 5.

For the molecule `Cc1cccc(Nc2nc(-c3ccncc3-c3ccccc3)cs2)c1`, the results for the IC50 in assay [1] (read-out: IC50), in assay [1] (read-out: pIC50 (converted)) and in assay [2] were 11.6 µM, 11.7 µM and 33.2 µM, respectively. The “Ratio IC50” value in assay [3] is recorded as 2.9.

On to `Cc1cccc(Nc2nc(-c3ccnc(-c4ccsc4)c3)cs2)c1`, for which the IC50 was 8.7 µM in assay [1] (read-out: IC50), 8.71 µM in assay [1] (read-out: pIC50 (converted)) and > 40 µM in assay [2]. In addition, in assay [3], the “Ratio IC50” value was >4.6.

`Cc1cccc(Nc2nc(-c3ccncc3)ns2)c1`: the results for the IC50 in assay [1] (read-out: IC50), in assay [1] (read-out: pIC50 (converted)) and in assay [2] were 24.8 µM, 25.1 µM and > 40 µM, respectively. The “Ratio IC50” value in assay [3] was >1.6.

`Cc1cccc(Nc2nc(-c3ccncc3-c3ccc(C(=O)NCCCN(C)C)cc3)cs2)c1`: the figures for the IC50 in assay [1] (read-out: IC50), in assay [1] (read-out: pIC50 (converted)) and in assay [2] were 4 µM, 4.07 µM and 3.9 µM, respectively. Further, the “Ratio IC50” value in assay [3] amounted to 1.
